Among the data in patent US7776847B2, “Benzisothiazoles useful for treating or preventing HCV infection” (priority 2005, dated 2010) are IC50 values, retold here.

The test system of the assay is HCV replicon. Description: HCV replicon luciferase reporter assay. The assay is classed as cell-based. The note with it: Hepatitis C virus, Table 5; read-out: IC50. Put shortly: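 Replicon-bearing dividing cells seeded at 5,000–7,500 cells/well, grown 24 h at 37° C/5% CO2, then exposed to test compound at various concentrations for a further 24–48 h. Replication/translation read by luciferase reporter; IC50 taken as compound amount giving 50% reduction in luciferase activity.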
In the case of `CC(C)(C)OC(=O)N1CCC(NCCCNc2nsc3ccccc23)CC1` [Compound 307, tert-butyl 4-(3-(benzo[d]isothiazol-3-ylamino)propylamino)piperidine-1-carboxylate], the IC50 (in general, the concentration that inhibits the measured activity by half) was below 5 µM.
As for `O=C(NCCCNc1nsc2ncccc12)C1CCN(c2nccc(C(F)(F)F)n2)CC1` [Compound 533, N-(3-(isothiazolo[5,4-b]pyridin-3-ylamino)propyl)-1-(4-(trifluoromethyl)pyrimidin-2-yl)piperidine-4-carboxamide], the IC50 is below 5 µM.
Then `O=C(NCCCNc1nsc2ccccc12)c1cc2ccc([N+](=O)[O-])cc2o1` [Compound 439, N-(3-(benzo[d]isothiazol-3-ylamino)propyl)-6-nitrobenzofuran-2-carboxamide], with below 5 µM.
On to `COc1cccc(S(=O)(=O)N(C)CCCN(C)c2nsc3ccccc23)c1` [Compound 344, N-(3-(benzo[d]isothiazol-3-yl(methyl)amino)propyl)-3-methoxy-N-methylbenzenesulfonamide], for which the 50% inhibitory concentration (IC50) was above 5 µM.
Then `O=S(=O)(NCCCNc1nsc2ccccc12)c1ccc(F)c(F)c1F` [Compound 250, N-(3-(benzo[d]isothiazol-3-ylamino)propyl)-2,3,4-trifluorobenzenesulfonamide], with below 5 µM; and `COc1cc(F)ccc1-c1ccc(NC(=O)NCCCNc2nsc3ccccc23)cc1` [Compound 393, 1-(3-(benzo[d]isothiazol-3-ylamino)propyl)-3-(4′-fluoro-2′-methoxybiphenyl-4-yl)urea], with below 5 µM.
On to `O=S(=O)(NCCCNc1nsc2ccccc12)c1ccc(Br)cc1C(F)(F)F` [Compound 263, N-(3-(benzo[d]isothiazol-3-ylamino)propyl)-4-bromo-2-(trifluoromethyl)benzenesulfonamide], for which the IC50 was below 5 µM.
As for `COc1ccc(-c2ccc(S(=O)(=O)NCCCNc3nsc4ccccc34)cc2)cc1OC` [Compound 332, N-(3-(benzo[d]isothiazol-3-ylamino)propyl)-3′,4′-dimethoxybiphenyl-4-sulfonamide], the figure is below 5 µM; as for `c1cncc(CNCCCNc2nsc3ccccc23)c1` [Compound 308, N^1-(benzo[d]isothiazol-3-yl)-N^3-(pyridin-3-ylmethyl)propane-1,3-diamine], above 5 µM.
As to `O=C(NCCCNc1nsc2ccccc12)c1cccc(F)n1` [Compound 420, N-(3-(benzo[d]isothiazol-3-ylamino)propyl)-6-fluoropicolinamide], the IC50 was above 5 µM.
In the case of `COc1ccc(-c2cccc(C(=O)NCCCNc3nsc4ccccc34)c2)cc1` [Compound 378, N-(3-(benzo[d]isothiazol-3-ylamino)propyl)-4′-methoxybiphenyl-3-carboxamide], the 50% inhibitory concentration (IC50) is below 5 µM.
Take `CCCNC(=O)Nc1ccc2oc(C(=O)NCCCNc3nsc4ccccc34)cc2c1` [Compound 455, N-(3-(benzo[d]isothiazol-3-ylamino)propyl)-5-(3-propylureido)benzofuran-2-carboxamide]: the half-maximal inhibitory concentration (IC50) was below 5 µM.
Consider `COc1ccc(-c2ccc(C(=O)NCCCNc3nsc4ccc(-c5cccc(OC)c5F)cc34)cc2)cc1` [Compound 407, N-(3-(5-(2-fluoro-3-methoxyphenyl)benzo[d]isothiazol-3-ylamino)propyl)-4′-methoxybiphenyl-4-carboxamide], for which the concentration for half-maximal inhibition (IC50) is below 5 µM.
Consider `COc1ccc(OC)c(S(=O)(=O)NCCCNc2nsc3ccccc23)c1` [Compound 261, N-(3-(benzo[d]isothiazol-3-ylamino)propyl)-2,5-dimethoxybenzenesulfonamide], for which the half-maximal inhibitory concentration (IC50) is below 5 µM.
As for `COc1ccc(C(=O)NCCNc2nsc3ccccc23)cc1` [Entry 14, N-(2-(Benzo[d]isothiazol-3-ylamino)ethyl)-4-methoxybenzamide], the IC50 is below 5 µM.
`CCN1CCN(c2ccc(C(=O)NCCCNc3nsc4ccccc34)cc2)CC1` [Compound 296, N-(3-(benzo[d]isothiazol-3-ylamino)propyl)-4-(4-ethylpiperazin-1-yl)benzamide]: the IC50 is below 5 µM.
